From paper PMC3042382, “The evolution of farnesoid X, vitamin D, and pregnane X receptors: insights from the green-spotted pufferfish (Tetraodon nigriviridis) and other non-mammalian species” (BMC Biochemistry, 2011)
Where two headings read alike, the source gives them in different places.

Experiments:
[1] = target: T1, tnPXR (Tetraodon PXR, GAL4/LBD) (Tetraodon nigroviridis, UniProt H3D8U6); parameters: species or system HepG2-NTCP; GAL4/LBD chimera luciferase transactivation, normalised to beta-galactosidase, efficacy relative to maximal activator; conditions: agonist
T1 construct: cloned from liver RNA
T1 sequence (H3D8U6 123-404): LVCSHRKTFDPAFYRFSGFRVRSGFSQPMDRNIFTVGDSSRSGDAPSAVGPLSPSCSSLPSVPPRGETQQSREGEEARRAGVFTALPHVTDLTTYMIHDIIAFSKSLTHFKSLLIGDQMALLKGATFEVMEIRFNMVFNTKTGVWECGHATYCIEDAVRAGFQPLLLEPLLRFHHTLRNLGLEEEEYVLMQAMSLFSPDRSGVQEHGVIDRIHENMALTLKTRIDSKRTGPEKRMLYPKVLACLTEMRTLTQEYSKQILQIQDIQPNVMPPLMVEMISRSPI
Procedure: (§1) The creation of a HepG2 (human liver) cell line stably expressing the human Na^+-taurocholate cotransporter (NTCP; SLC10A1) has been previously reported. HepG2-NTCP cells were grown in modified Eagle's medium-α containing 10% fetal bovine serum and 1% penicillin/streptomycin. The cells were grown at 37°C in 5% CO2. The chicken LMH hepatoma cell line (ATCC, Manassus, VA, USA) was grown in Waymouth's MB 752/1 medium (ATCC) with 10 fetal bovine serum. The Xenopus laevis A6 kidney cell line (ATCC) was grown in 75% NCTC 109 medium, 15% distilled water, and 10% fetal bovine serum at 26°C in 2% CO2. Except as noted above, all media and media supplements for the HepG2 and A6 cell lines were obtained from Invitrogen (Carlsbad, CA, USA). Co-transfections and transactivations assays were performed as previously described. The maximal activators and their concentrations were as follows: chVDR, xlVDR, and tnVDR - 200 nM 1α,25-(OH)2-vitamin D3; tnFXR - 5 μM GW4064; tnPXR - 50 μM 5α-androstan-3α-ol. All comparisons to maximal activators were done within the same microplate. Luciferase data were normalized to the internal β-galactosidase control and represent means ± SD of the assays. The LBD of chicken VDR was cloned from RNA extracted from the LMH cell line. The LBD of Xenopus laevis VDR was cloned from RNA extracted from the A6 cell line. The LBDs of tnFXR, tnVDR, and tnPXR were cloned from total RNA extracted from Tetraodon liver using sequence information from the draft Tetraodon nigriviridis genome. The LBDs of chVDR (amino acid residues 113-451), xlVDR (amino acid residues 91-422), tnFXR (amino acid residues 180-463), tnVDR (amino acid residues 91-426), and tnPXR (amino acid residues 202-483) were inserted into the pM2-GAL4 vector to create GAL4/LBD chimeras.

[2] = target: T1, tnPXR (Tetraodon PXR, GAL4/LBD); test: cell-based; parameters: GAL4/LBD chimera luciferase transactivation, normalised to beta-galactosidase, efficacy relative to maximal activator; conditions: HepG2-NTCP; relative to 50 uM 5α-androstan-3α-ol; read-out: Efficacy
Procedure: as §1

[3] = target: T2, tnVDR (Tetraodon VDR alpha, GAL4/LBD) (Tetraodon nigroviridis, UniProt A0A0A1CGS5); test: cell-based; parameters: GAL4/LBD chimera luciferase transactivation, normalised to beta-galactosidase, efficacy relative to maximal activator; conditions: HepG2-NTCP; relative to 200 nM 1α,25-(OH)2-vitamin D3; read-out: Efficacy
T2 construct: gene VDRa; cloned from liver RNA
T2 sequence (A0A0A1CGS5 91-420): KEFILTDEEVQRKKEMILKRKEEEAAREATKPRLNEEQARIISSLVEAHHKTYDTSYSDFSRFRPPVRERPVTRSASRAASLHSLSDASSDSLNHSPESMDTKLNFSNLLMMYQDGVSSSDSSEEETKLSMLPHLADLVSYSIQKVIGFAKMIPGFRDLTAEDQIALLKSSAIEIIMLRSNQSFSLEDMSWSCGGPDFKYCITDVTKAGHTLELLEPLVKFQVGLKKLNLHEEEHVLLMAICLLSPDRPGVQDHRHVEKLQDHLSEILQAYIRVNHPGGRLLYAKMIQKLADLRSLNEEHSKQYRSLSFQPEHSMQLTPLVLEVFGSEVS
Procedure: as §1

[4] = target: T3, tnPXR (Tetraodon PXR, GAL4/LBD) (Tetraodon nigroviridis, UniProt H3D8U6); test: GAL4/LBD luciferase transactivation; format: cell-based; conditions: agonist, HepG2-NTCP cells
T3 construct: cloned from liver RNA

[5] = tested on: T4, tnFXR (Tetraodon FXR, GAL4/LBD); test: GAL4/LBD luciferase transactivation; format: cell-based, Tetraodon nigroviridis; conditions: agonist, HepG2-NTCP cells
T4 construct: gene NR1H4; cloned from liver RNA

[6] = target: T5, chVDR (chicken VDR, GAL4/LBD) (Gallus gallus, UniProt O42392); test: cell-based
T5 sequence (O42392 113-451): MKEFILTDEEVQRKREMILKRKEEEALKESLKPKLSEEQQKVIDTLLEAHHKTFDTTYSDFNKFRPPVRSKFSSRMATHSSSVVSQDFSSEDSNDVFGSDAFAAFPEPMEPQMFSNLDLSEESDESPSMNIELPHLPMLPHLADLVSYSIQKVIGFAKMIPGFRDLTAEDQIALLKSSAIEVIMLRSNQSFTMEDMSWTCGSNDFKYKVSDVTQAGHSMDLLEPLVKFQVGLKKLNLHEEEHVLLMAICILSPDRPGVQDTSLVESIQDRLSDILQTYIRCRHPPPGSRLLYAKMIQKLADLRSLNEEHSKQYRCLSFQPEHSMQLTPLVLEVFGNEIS

[7] = reference maximal activator ([…])

| Compound | EC50 [1] [µM] | Emax [2] [%] | further results |
| --- | --- | --- | --- |
| C[C@H](CCC(=O)O)[C@H]1CC[C@H]2[C@@H]3CC[C@@H]4CC(=O)CC[C@]4(C)[C@H]3CC[C@]12C [3_Keto_LCA] | 42.3 | 65 | Emax [3]: 17% |
| C[C@]12CC[C@@H](O)C[C@@H]1CC[C@@H]1[C@@H]2CC[C@]2(C)C=CC[C@@H]12 [5α-Androst-16-en-3α-ol] | 7.4 | 58 | – |
| C[C@H](CCC(=O)O)[C@H]1CC[C@H]2[C@@H]3CC[C@H]4CCCC[C@]4(C)[C@H]3CC[C@]12C [5α-Cholan-24-oic acid] | – | – | Emax [3]: 3% |
| C[C@H](CCCC(CO)COS(=O)(=O)O)[C@H]1CC[C@H]2[C@@H]3[C@H](O)C[C@H]4C[C@H](O)CC[C@]4(C)[C@H]3C[C@H](O)[C@]12C (stereo partly drawn) [5α-Cyprinol-27-sulfate] | 8.2 | – | – |
| C[C@@]12CCC[C@H]1[C@@H]1CC[C@H]3C[C@H](O)CC[C@]3(C)[C@H]1CC2 [5α-androstan-3α-ol] | – | – | EC50 [4, 7]: 6.1 ± 0.7 µM |
| CC(=O)[C@H]1CC[C@H]2[C@@H]3CC[C@@H]4CC(=O)CC[C@]4(C)[C@H]3CC[C@]12C [5β-Pregnanedione] | – | 73 | – |
| CC(=O)[C@H]1CC[C@H]2[C@@H]3CC[C@@H]4CC(=O)CC[C@]4(C)[C@H]3CC[C@]12C [5β-pregnane-3,20-dione] | – | – | EC50 [4]: 4 µM |
| C=C1CC[C@H](O)C/C1=C/C=C1\CCC[C@]2(C)[C@@H]([C@H](C)CCCC(C)(C)O)CC[C@@H]12 [25-Hydroxyvitamin D3] | – | – | Emax [3]: 110% |
| C[C@H](CCC(=O)O)[C@H]1CC[C@H]2[C@@H]3[C@H](O)C[C@@H]4C[C@H](O)CC[C@]4(C)[C@H]3CC[C@]12C [CDCA, 3α,7α-dihydroxy-5β-cholan-24-oic acid] | 15.6 | 38 | – |
| C[C@]12CCC(=O)C=C1CC[C@@H]1[C@@H]2C(=O)C[C@@]2(C)[C@H]1CC[C@]2(O)C(=O)CO [Cortisone] | 12.2 | 19 | – |
| C[C@]12CC[C@H](OS(=O)(=O)O)CC1=CC[C@@H]1[C@@H]2CC[C@]2(C)C(=O)CC[C@@H]12 [DHEA_sulfate] | 8.5 | 70 | – |
| C[C@H](CCC(=O)O)[C@H]1CC[C@H]2[C@@H]3CC[C@@H]4C[C@H](O)CC[C@]4(C)[C@H]3C[C@H](O)[C@]12C [Deoxycholic acid] | 9 | 33 | – |
| C[C@]12CC[C@@H]3c4ccc(O)cc4CC[C@H]3[C@@H]1CC[C@@H]2O [Estradiol] | 9.6 | 47 | – |
| CC(C)c1onc(-c2c(Cl)cccc2Cl)c1COc1ccc(/C=C/c2cccc(C(=O)O)c2)c(Cl)c1 [GW4064] | – | – | EC50 [5, 7]: 2.8 ± 0.8 µM |
| C[C@H](CCC(=O)O)[C@H]1CC[C@H]2[C@@H]3CC[C@@H]4C[C@@H](O)CC[C@]4(C)[C@H]3CC[C@]12C [Iso-LCA] | – | – | Emax [3]: 4% |
| CC(=O)O[C@@H]1CC[C@@]2(C)[C@H](CC[C@@H]3[C@@H]2CC[C@]2(C)[C@@H]([C@H](C)CCC(=O)O)CC[C@@H]32)C1 [LCA acetate] | – | – | Emax [3]: 61% |
| C[C@H](CCC(=O)O)[C@H]1CC[C@H]2[C@@H]3CC[C@@H]4C[C@H](O)CC[C@]4(C)[C@H]3CC[C@]12C [LCA, 3α-hydroxy-5β-cholan-24-oic acid] | 81 | 10 | EC50 [5]: 20.8 ± 1 µM; EC50 [6]: 50.3 ± 7.4 µM; Emax [3]: 12% |
| CC(=O)[C@H]1CC[C@H]2[C@@H]3CC=C4C[C@@H](O)CC[C@]4(C)[C@H]3CC[C@]12C [Pregnenolone] | 3.3 | 34 | – |
| CC(=O)[C@H]1CC[C@H]2[C@@H]3CCC4=CC(=O)CC[C@]4(C)[C@H]3CC[C@]12C [Progesterone] | 8.9 | 33 | – |
| O=S(=O)(c1ccccc1)N(CC(F)(F)F)c1ccc(C(O)(C(F)(F)F)C(F)(F)F)cc1 [T-0901317] | 7.7 | 17 | – |
| C[C@H](CCC(=O)NCCS(=O)(=O)O)[C@H]1CC[C@H]2[C@@H]3[C@H](O)C[C@@H]4C[C@H](O)CC[C@]4(C)[C@H]3CC[C@]12C [TCDCA, taurochenodeoxycholic acid] | – | 59 | EC50 [4]: 4.8 ± 0.3 µM |
| C[C@H](CCC(=O)NCCS(=O)(=O)O)[C@H]1CC[C@H]2[C@@H]3CC[C@@H]4C[C@H](O)CC[C@]4(C)[C@H]3CC[C@]12C [Tauro-LCA] | 19.1 | 29 | – |
| CCCCOC(=O)c1ccc(N)cc1 [n-butyl 4-amino benzoate] | – | 88 | EC50 [4]: 25.6 ± 1.4 µM |
